In US12384753B2, “17-beta-hydroxysteroid dehydrogenase type 13 inhibitors and methods of use thereof” (Enanta Pharmaceuticals, Inc., priority 2021, dated 2025) one finds IC50 data, which are given here for 60 molecules.

The target of this assay is Recombinant human HSD17B13 (Homo sapiens (Human), UniProt Q7Z5P4). Kind of assay: HSD17B13 rapid-fire mass spectrometry assay (RF/MS assay). It counts as biochemical. As to conditions: inhibition of HSD17B13; LTB4 10 μM, NAD+ 0.5 mM, RT 3 h; IC50 ranges A-E. The gist of the method: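 Product 12-oxo-LTB4 and substrate LTB4 quantified by RapidFire triple-quad MS in negative mode, giving percent conversion. Reaction: 80 nM recombinant hHSD17B13, 10 μM LTB4, 0.5 mM NAD+, compound up to 100 μM, pH 7.5, RT, 3 h. Variable-slope fit gave IC50; run in duplicate.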

pIC50: −log10 of the molar value.

Sequence of Recombinant human HSD17B13 (Q7Z5P4 20-300): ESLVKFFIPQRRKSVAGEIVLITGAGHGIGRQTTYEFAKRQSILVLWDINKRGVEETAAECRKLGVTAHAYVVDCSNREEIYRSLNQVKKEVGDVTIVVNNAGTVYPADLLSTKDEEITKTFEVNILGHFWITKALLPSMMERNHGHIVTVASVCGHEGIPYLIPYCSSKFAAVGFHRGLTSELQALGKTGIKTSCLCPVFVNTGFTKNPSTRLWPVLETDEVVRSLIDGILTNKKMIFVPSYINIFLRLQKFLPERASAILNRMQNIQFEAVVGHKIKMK

By pIC50 is commonly meant −log10 of the IC50, conventionally taken in molar units. Consider `COc1cc(C(=O)O)c(F)cc1NS(=O)(=O)c1csc(-c2ccc(C3=CCC(C(F)(F)F)CC3)c(OC)c2F)n1` (stereo not drawn) [Example 600], for which the pIC50 was greater than 7.00.

Consider `COc1cc(C(=O)O)c(F)cc1NS(=O)(=O)c1csc(-c2ccc(C3=CCC(C(F)(F)F)CC3)cc2C(F)(F)F)n1` (stereo not drawn) [Example 601], for which the pIC50 is greater than 7.00. For `COc1cc(C(=O)O)c(F)cc1NS(=O)(=O)c1csc(-c2ccc([C@H]3CC[C@@H](C(F)(F)F)CC3)c(F)c2C)n1` [Example 602], the negative logarithm of the IC50 (pIC50) was greater than 7.00.

For the molecule `COc1cc(C(=O)O)c(F)cc1NS(=O)(=O)c1csc(-c2ccc([C@H]3CC[C@H](C(F)(F)F)CC3)c(F)c2C)n1` [Example 603], the negative logarithm of the IC50 (pIC50) was greater than 7.00. To `COc1cc(C(=O)O)c(F)cc1NS(=O)(=O)c1csc(-c2ccc([C@H]3CC[C@H](C(F)(F)F)CC3)c(OC)c2F)n1` [Example 605] belongs greater than 7.00. The same measure for `COc1cc(C(=O)O)c(F)cc1NS(=O)(=O)c1csc(-c2ccc([C@H]3CC[C@@H](C(F)(F)F)CC3)cc2C(F)(F)F)n1` [Example 606]: greater than 7.00; for `COc1cc(C(=O)O)c(F)cc1NS(=O)(=O)c1csc(-c2ccc([C@H]3CC[C@H](C(F)(F)F)CC3)cc2C(F)(F)F)n1` [Example 607]: greater than 7.00; for `COc1cc(C(=O)O)ccc1NS(=O)(=O)c1csc(-c2ccc([C@H]3CC[C@@H](C(F)(F)F)CC3)cc2)n1` [Example 608]: 6.30 to 7.00. The same measure for `COc1cc(C(=O)O)ccc1NS(=O)(=O)c1coc(-c2ccc([C@H]3CC[C@@H](C(F)(F)F)CC3)cc2)n1` [Example 609]: greater than 7.00; for `COc1cc(C(=O)O)ccc1NS(=O)(=O)c1coc(-c2ccc([C@H]3CC[C@H](C(F)(F)F)CC3)cc2)n1` [Example 610]: 6.30 to 7.00; for `COc1cc(C(=O)O)c(F)cc1NS(=O)(=O)c1cccc(-c2ccc([C@H]3CC[C@H](C(C)(C)C)CC3)cc2)c1F` [Example 612]: greater than 7.00.

For `COc1cc(C(=O)O)c(F)cc1NS(=O)(=O)c1ncc(-c2ccc(F)cc2)s1` [Example 614], the pIC50 was greater than 7.00. In the case of `CC[C@H]1CC[C@H](c2ccc(-c3cnc(S(=O)(=O)Nc4cc(F)c(C(=O)O)cc4OC)s3)cc2)CC1` [Example 615], the pIC50 was 6.30 to 7.00. To `COc1cc(C(=O)O)c(F)cc1NS(=O)(=O)c1ncc(-c2ccc(C3CCCCC3)cc2)s1` [Example 616] belongs 6.30 to 7.00; to `COc1cc(C(=O)O)c(F)cc1NS(=O)(=O)c1coc(-c2ccc(C3=CCC4(CC3)OCCO4)cc2)n1` [Example 617], greater than 7.00. For `COc1cc(C(=O)O)c(F)cc1NS(=O)(=O)c1coc(-c2ccc(C3CCC4(CC3)OCCO4)cc2)n1` [Example 618], the pIC50 is greater than 7.00.

As for `COc1cc(C(=O)O)c(F)cc1NS(=O)(=O)c1csc(-c2ccc([C@H]3CC[C@@H](C(C)C)CC3)cc2C(F)(F)F)n1` [Example 619], the negative-log IC50 (pIC50) was 6.30 to 7.00. Regarding `COc1cc(C(=O)O)c(F)cc1NS(=O)(=O)c1csc(-c2ccc([C@H]3CC[C@H](C(C)C)CC3)cc2C(F)(F)F)n1` [Example 620], the pIC50 is greater than 7.00. Take `COc1cc(C(=O)O)c(F)cc1NS(=O)(=O)c1ncc(-c2ccc([C@H]3CC[C@H](C(F)(F)F)CC3)cc2)s1` [Example 621]: the negative-log IC50 (pIC50) is 6.30 to 7.00. The same measure for `COc1cc(C(=O)O)c(F)cc1NS(=O)(=O)c1cc(-c2ccc(C3CCCCC3)cc2)ccn1` [Example 622]: 6.00 to 6.30; for `COc1cc(C(=O)O)c(F)cc1NS(=O)(=O)c1coc(-c2ccc([C@H]3CC[C@@H](O)CC3)cc2)n1` [Example 623]: 6.30 to 7.00. Turning to `COc1cc(C(=O)O)c(F)cc1NS(=O)(=O)c1csc(-c2ccc(CC3CCCCC3)cc2)n1` [Example 624], the pIC50 was 6.30 to 7.00. The same measure for `COc1cc(C(=O)O)c(F)cc1NS(=O)(=O)c1csc(-c2ccc(CCC(C)C)cc2)n1` [Example 625]: 6.30 to 7.00. The same measure for `COc1cc(C(=O)O)c(F)cc1NS(=O)(=O)c1cnc(-c2ccc([C@H]3CC[C@@H](C)CC3)cc2)s1` [Example 626]: 6.30 to 7.00; for `COc1cc(C(=O)O)c(F)cc1NS(=O)(=O)c1cnc(-c2ccc([C@H]3CC[C@H](C)CC3)cc2)s1` [Example 627]: greater than 7.00; for `CCCCC[C@H]1CC[C@H](c2ccc(-c3ncc(S(=O)(=O)Nc4cc(F)c(C(=O)O)cc4OC)s3)cc2)CC1` [Example 628]: 6.30 to 7.00. To `COc1cc(C(=O)O)c(F)cc1NS(=O)(=O)c1ccc2sc(-c3ccc(C4CCCCC4)cc3)nc2c1` [Example 629] belongs 6.30 to 7.00.

With `COc1cc(C(=O)O)c(F)cc1NS(=O)(=O)c1coc(-c2ccc(C3CCC(OC(=O)N4CCOCC4)CC3)cc2)n1` (stereo not drawn) [Example 630], the negative-log IC50 (pIC50) was greater than 7.00. To `COc1cc(C(=O)O)c(F)cc1NS(=O)(=O)c1csc(-c2ccc(NC3CCC(C)(C)CC3)cc2)n1` [Example 631] belongs greater than 7.00; to `CC[C@H]1CC[C@H](c2ccc(-c3nc4cc(S(=O)(=O)Nc5cc(F)c(C(=O)O)cc5OC)ccc4s3)cc2)CC1` [Example 632], 6.30 to 7.00. Turning to `COc1cc(C(=O)O)c(F)cc1NS(=O)(=O)c1ncc(-c2ccc(C3=CCC(C(C)(C)C)CC3)cc2)s1` (stereo not drawn) [Example 633], the pIC50 is 6.30 to 7.00. The same measure for `COc1cc(C(=O)O)c(F)cc1NS(=O)(=O)c1csc(-c2ccc(-c3ccsc3)cc2)n1` [Example 634]: 6.30 to 7.00. The same measure for `COc1cc(C(=O)O)c(F)cc1NS(=O)(=O)c1csc(-c2ccc(-c3ccccn3)cc2)n1` [Example 635]: 6.30 to 7.00. To `COc1cc(C(=O)O)c(F)cc1NS(=O)(=O)c1csc(-c2ccc(-c3csc4ccccc34)cc2)n1` [Example 636] belongs 6.30 to 7.00; to `COc1cc(C(=O)O)c(F)cc1NS(=O)(=O)c1csc(-c2ccc(-c3cc4ccccc4[nH]3)cc2)n1` [Example 637], 6.30 to 7.00.

Turning to `COc1cc(C(=O)O)c(F)cc1NS(=O)(=O)c1csc(-c2ccc(-c3ccc4[nH]ccc4c3)cc2)n1` [Example 638], the pIC50 is greater than 7.00. The same measure for `COc1cc(C(=O)O)c(F)cc1NS(=O)(=O)c1csc(-c2ccc(-c3ccc4ncccc4c3)cc2)n1` [Example 639]: greater than 7.00; for `CC[C@H]1CC[C@H](c2ccc(-c3ccnc(S(=O)(=O)Nc4cc(F)c(C(=O)O)cc4OC)c3)cc2)CC1` [Example 640]: 6.30 to 7.00; for `COc1cc(C(=O)O)c(F)cc1NS(=O)(=O)c1cc(-c2ccc([C@H]3CC[C@H](C(F)(F)F)CC3)cc2)ccn1` [Example 641]: 6.30 to 7.00. To `CC[C@H]1CC[C@H](c2ccc(-c3ncc(S(=O)(=O)Nc4cc(F)c(C(=O)O)cc4OC)s3)cc2)CC1` [Example 642] belongs 6.30 to 7.00.

Consider `COc1cc(C(=O)O)c(F)cc1NS(=O)(=O)c1cnc(-c2ccc(C3CCC(c4ccccc4)CC3)cc2)s1` (stereo not drawn) [Example 643], for which the negative-log IC50 (pIC50) is 6.30 to 7.00. The same measure for `COc1cc(C(=O)O)c(F)cc1NS(=O)(=O)c1csc(-c2ccc(-c3cn[nH]c3)cc2)n1` [Example 644]: 6.30 to 7.00. To `COc1cc(C(=O)O)c(F)cc1NS(=O)(=O)c1csc(-c2ccc(-c3cccs3)cc2)n1` [Example 645] belongs 6.30 to 7.00; to `COc1cc(C(=O)O)c(F)cc1NS(=O)(=O)c1csc(-c2ccc(-c3cc4ccccc4o3)cc2)n1` [Example 646], greater than 7.00; to `COc1cc(C(=O)O)c(F)cc1NS(=O)(=O)c1csc(-c2ccc(-c3cccc4[nH]ccc34)cc2)n1` [Example 647], greater than 7.00. To `CC[C@H]1CC[C@H](c2ccc(-c3nc(S(=O)(=O)Nc4ccc5c(O)cccc5c4OC)cs3)cc2)CC1` [Example 648] belongs 4.00 to 6.00. For `COc1c(NS(=O)(=O)c2csc(-c3ccc([C@H]4CC[C@H](C(F)(F)F)CC4)cc3)n2)ccc2c(O)cccc12` [Example 649], the pIC50 was 4.00 to 6.00. To `COc1cc(C(=O)O)c(F)cc1NS(=O)(=O)c1ccc2sc(-c3ccc([C@H]4CC[C@H](C(F)(F)F)CC4)cc3)nc2c1` [Example 650] belongs 6.30 to 7.00. Turning to `COc1cc(C(=O)O)c(F)cc1NS(=O)(=O)c1csc(-c2ccc(-c3cnoc3)cc2)n1` [Example 651], the negative-log IC50 (pIC50) was 6.30 to 7.00. The same measure for `COc1cc(C(=O)O)c(F)cc1NS(=O)(=O)c1csc(-c2ccc(-c3ccncc3)cc2)n1` [Example 652]: 6.30 to 7.00; for `COc1cc(C(=O)O)c(F)cc1NS(=O)(=O)c1csc(-c2ccc(-c3ccc4c(c3)NCCO4)cc2)n1` [Example 653]: greater than 7.00; for `COc1cc(C(=O)O)c(F)cc1NS(=O)(=O)c1csc(-c2ccc(-c3ccc4cnccc4c3)cc2)n1` [Example 654]: 6.30 to 7.00. To `COc1cc(C(=O)O)c(F)cc1NS(=O)(=O)c1csc(-c2ccc(-c3cncc(F)c3)cc2)n1` [Example 655] belongs 6.30 to 7.00; to `COc1cc(C(=O)O)c(F)cc1NS(=O)(=O)c1cnn(-c2ccc(C3CCCCC3)cc2)c1` [Example 656], 6.30 to 7.00; to `CC[C@H]1CC[C@H](c2ccc(-c3nc4ccc(S(=O)(=O)Nc5cc(F)c(C(=O)O)cc5OC)cc4s3)cc2)CC1` [Example 658], 4.00 to 6.00. As to `COc1cc(C(=O)O)c(F)cc1NS(=O)(=O)c1ccc2nc(-c3ccc([C@H]4CC[C@H](C(F)(F)F)CC4)cc3)sc2c1` [Example 659], the pIC50 was 6.00 to 6.30. To `CC1(C)CCC(c2ccc(-c3nc(S(=O)(=O)Nc4ccc(C(=O)O)cc4)cs3)cc2)CC1` [Example 660] belongs 6.30 to 7.00. The same measure for `COc1cc(C(=O)O)c(F)cc1NS(=O)(=O)c1ccc2nc(-c3ccc(C4CCCCC4)cc3)sc2c1` [Example 661]: 6.30 to 7.00; for `COc1cc(C(=O)O)c(F)cc1NS(=O)(=O)c1ccc2sc(-c3ccc(C4CCCC4)cc3)nc2c1` [Example 662]: 6.30 to 7.00; for `COc1cc(C(=O)O)c(F)cc1NS(=O)(=O)c1ccc2sc(-c3ccc(C4CCC4)cc3)nc2c1` [Example 663]: 6.30 to 7.00.
